Values quoted from earlier work as cited in patent US8512522B2, “Method of producing paper with methane reduction ingredients” (priority 2011, dated 2013).
Where two headings read alike, the source gives them in different places.

Key:
[1] = system: Anaerobic digested sludge + activated sludge
Anaerobic digester = details: methane inhibition
Marine sediments = details: methane inhibition
Sewage sludge = details: methane inhibition
Anaerobic medium = details: methane inhibition

O=S(=O)(O)CCBr [2-Bromoethane sulfonic acid]
Suppressive Concentration ([1]; completely inhibited, Parameswaran et al., 2009): 50 mM
Suppressive Concentration ([1]; potently inhibited, Chae et al., 2010): 0.1 to 0.27 mM

[Ca+2] [Calcium]
Suppressive Concentration (Anaerobic digester): >2,500 mg/L

[Cu+2] [Copper (Cu2+)]
Suppressive Concentration (Anaerobic digester): 10 to 250 mg/L

C=C [Ethylene]
Suppressive Concentration (Marine sediments): >5% v/v

[Fe+3] [Ferric iron (Fe3+)]
Suppressive Concentration (Sewage sludge): 21 mg/L

[Mg+2] [Magnesium]
Suppressive Concentration (Anaerobic digester): >1,000 mg/L

[Ni+2] [Nickel (Ni2+)]
Suppressive Concentration (Anaerobic medium): 2.5 mM

[K+] [Potassium]
Suppressive Concentration (Anaerobic digester): >2,500 mg/L

[Zn+2] [Zinc (Zn2+)]
Suppressive Concentration (Anaerobic digester): 10 to 250 mg/L

Sodium
Suppressive Concentration (Anaerobic digester): >3,500 mg/L
